Source: ChEMBL document CHEMBL1759844, “Design, synthesis and antimycobacterial activity of cinnamide derivatives: a molecular hybridization approach” (Bioorg Med Chem Lett, 2011)

Key:
[1] = tested on: Mycobacterium tuberculosis; assay: Antimicrobial activity against Mycobacterium tuberculosis H37Rv after 48 hrs by resazurin microplate broth microdilution method; type: functional
[2] = Cytotoxicity against african green monkey Vero cells after 72 hrs by MTT assay; type: cell-based; settings: chlorocebus sabaeus
[3] = Selectivity index, ratio of CC50 for african green monkey Vero cells to MIC for Mycobacterium tuberculosis H37Rv; type: functional
[4] = tested on: Mycobacterium tuberculosis; assay: Antimicrobial activity against Mycobacterium tuberculosis H37Rv after 48 hrs by resazurin microplate broth microdilution method in presence of rifampicin; type: functional

SMILES	MIC [1]	CC50 at 72 h [2] [µM]	Selectivity Index [3]	fractional inhibitory concentration index (FICI) [4]
O=C(/C=C/c1ccccc1)N1CCCN(C(=O)/C=C/c2ccccc2)CC1	17.3 µM	708	41	–
O=C(/C=C/c1ccccc1)NCCN1CCN(C(=O)/C=C/c2ccccc2)CC1	16.7 µM	480	29	–
O=C(/C=C/c1ccccc1Cl)NCCNC(=O)/C=C/c1ccccc1Cl	64.4 µM	725	11	–
O=C(/C=C/c1ccccc1)N1CCN(C(=O)/C=C/c2ccccc2)CC1	9 µM	855	95	–
O=C(/C=C/c1ccc(Cl)cc1)NCCNC(=O)/C=C/c1ccc(Cl)cc1	129 µM	788	6	–
O=C(/C=C/c1cccc([N+](=O)[O-])c1)NCCNC(=O)/C=C/c1cccc([N+](=O)[O-])c1	68.5 µM	615	9	–
O=C(/C=C/c1ccccc1)NCCNC(=O)/C=C/c1ccccc1	5.1 µM	618	121	0.31
Cc1ccc(/C=C/C(=O)NCCNC(=O)/C=C/c2ccc(C)cc2)cc1	144 µM	565	4	–
O=C(/C=C/c1ccco1)NCCNC(=O)/C=C/c1ccco1	10.8 µM	683	63	–
O=C(/C=C/c1cccs1)NCCNC(=O)/C=C/c1cccs1	9.41 µM	692	74	–
O=C(/C=C/c1c(Cl)cccc1Cl)NCCNC(=O)/C=C/c1c(Cl)cccc1Cl	54.8 µM	653	12	–
O=C(/C=C/c1ccc(Cl)c(Cl)c1)NCCNC(=O)/C=C/c1ccc(Cl)c(Cl)c1	54.8 µM	653	12	–
COc1ccc(/C=C/C(=O)NCCNC(=O)/C=C/c2ccc(OC)cc2)cc1	132 µM	680	5	–
CO[C@H]1/C=C/O[C@@]2(C)Oc3c(C)c(O)c4c(O)c(c(/C=N/N5CCN(C)CC5)c(O)c4c3C2=O)NC(=O)/C(C)=C\C=C\[C@H](C)[C@H](O)[C@@H](C)[C@@H](O)[C@@H](C)[C@H](OC(C)=O)[C@@H]1C [RIFAMPIN]	0.125 µg/mL	–	–	–
CC[C@@H](CO)NCCN[C@@H](CC)CO [ETHAMBUTOL]	15.3 µM	1470	96	–
COc1ccccc1/C=C/C(=O)NCCNC(=O)/C=C/c1ccccc1OC	65.8 µM	695	11	–
